Assay results reported in patent publication US12331068B2, “Compositions and methods for inhibiting CD73” (Peloton Therapeutics, Inc., priority 2018, dated 2025).

Columns and labels:
Human CD73 = target: T1, Human CD73 (Homo sapiens, UniProt P21589); test: CD73 Enzyme Assay (EnzChek PNP/MESG kinetic readout of AMP hydrolysis); format: biochemical; details: 0.25 nM hCD73, 25 μM AMP; read-out: CD73 Enzyme Assay IC50
T1 construct: purchased R&D Systems; host or cells: CHO cells
T1 sequence (P21589 27-549): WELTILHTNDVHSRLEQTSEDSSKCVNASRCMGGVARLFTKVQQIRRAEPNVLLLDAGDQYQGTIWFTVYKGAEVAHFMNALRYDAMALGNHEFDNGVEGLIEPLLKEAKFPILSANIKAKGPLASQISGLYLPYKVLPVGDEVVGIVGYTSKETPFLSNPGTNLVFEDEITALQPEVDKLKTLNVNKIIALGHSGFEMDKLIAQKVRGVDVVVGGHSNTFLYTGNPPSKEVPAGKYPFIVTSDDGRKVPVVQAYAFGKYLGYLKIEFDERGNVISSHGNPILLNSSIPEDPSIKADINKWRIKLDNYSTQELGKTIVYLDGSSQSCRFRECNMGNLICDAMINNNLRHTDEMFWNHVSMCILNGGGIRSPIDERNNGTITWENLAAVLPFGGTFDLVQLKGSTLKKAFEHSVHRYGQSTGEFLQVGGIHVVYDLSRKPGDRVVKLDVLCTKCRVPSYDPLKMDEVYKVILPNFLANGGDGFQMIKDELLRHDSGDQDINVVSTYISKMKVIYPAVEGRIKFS
Experimental: A compound of the present disclosure (5 μL) was transferred to a 384-well assay plate. The compound was added in a 15 point, 3-fold serial dilution (300 μM to 0.0002 μM) in DMSO. […] The plate was immediately placed in a plate reader (Synergy 2 or Spark 10), and a reading was taken every minute for 10 to 20 minutes in a kinetic run at 360 nm. The linear portion of the curve was used to determine the observed rate (initial velocity). Low signal controls containing 100 μM adenosine 5′-(α,β-methylene) diphosphate and high signal controls containing no compound were measured for each plate.
IC50 values were calculated using Dotmatics template equation for 4-parameter fit. Results are expressed as % inhibition using the following equation: […]

[1] = target: T2, CD73 on U138 human neuroglioma cells (Homo sapiens, UniProt P21589); test: CD73 Cell-Based Assay (inorganic phosphate from AMP, malachite green); details: AMP substrate, 2 hours at 37° C., read-out: CD73 Cell-Based assay IC50
T2 construct: U138 cells were obtained from ATCC and cultured in DMEM with 10% FBS; host or cells: U138 human neuroglioma cells
T2 sequence (P21589 27-549): T1 sequence (P21589 27-549)
Experimental: U138 human neuroglioma cells were used in these experiments. U138 cells were obtained from ATCC and cultured in DMEM with 10% FBS. 2500 cells were seeded into 96-well plate with 100 μL of media the day before the experiment. […] After washing, 100 μL of buffer was added to each well, then 100 μL of a mixture of AMP substrate (200 μM) and diluted compound was added to each well. The cells were incubated at 37° C. (with 5% CO2) for 2 hours. 50 μL of supernatant was transferred to a 96-well assay plate and the concentration of inorganic phosphate was determined using malachite green reagent (R&D System; Cat: DY996).

| Compound | IC50 (Human CD73) | IC50 [1] |
| --- | --- | --- |
| N#Cc1c(Cl)nc2c(ncn2[C@@H]2O[C@H](COCP(=O)(O)O)[C@@H](O)[C@H]2O)c1N1C[C@@H](F)[C@@H](F)C1 [Compound 92, ((((2R,3S,4R,5R)-5-(5-chloro-6-cyano-7-((3S,4R)-3,4-difluoropyrrolidin-1-yl)-3H-imidazo[4,5-b]pyridin-3-yl)-3,4-dihydroxytetrahydrofuran-2-yl)methoxy)methyl)phosphonic acid] | < 10 nM | < 10 nM |
| N#Cc1c(Cl)nc2c(ccn2[C@@H]2O[C@H](CS(=O)(=O)CP(=O)(O)O)[C@@H](O)[C@H]2O)c1NC1CC2(CCC2)C1 [Compound 158] | < 10 nM | < 10 nM |
| N#Cc1c(Cl)nc2c(cnn2[C@@H]2O[C@H](COCP(=O)(O)O)[C@@H](O)[C@H]2O)c1NC1CC(F)(F)C1 [Compound 81] | < 10 nM | < 10 nM |
| C[C@H](Nc1c(C#N)c(Cl)nc2c1ncn2[C@@H]1O[C@H](COP(=O)(O)CP(=O)(O)O)[C@@H](O)[C@H]1O)c1ccc(F)cn1 [Compound 240] | < 10 nM | < 10 nM |
| C[C@@H](Nc1c(C#N)c(Cl)nc2c1ccn2[C@@H]1O[C@H](COP(=O)(O)CP(=O)(O)O)[C@@H](O)[C@H]1O)c1ccc(F)cn1 [Compound 222, (((((2R,3S,4R,5R)-5-(6-chloro-5-cyano-4-(((R)-1-(5-fluoropyridin-2-yl)ethyl)amino)-1H-pyrrolo[2,3-b]pyridin-1-yl)-3,4-dihydroxytetrahydrofuran-2-yl)methoxy)(hydroxy)phosphoryl)methyl)phosphonic acid] | < 10 nM | < 10 nM |
| C[C@@H](Nc1c(C#N)c(Cl)nc2c1ccn2[C@@H]1O[C@H](COP(=O)(O)CP(=O)(O)O)[C@@H](O)[C@H]1O)c1ccc(C#N)cc1 [Compound 213] | < 10 nM | < 10 nM |
| N#Cc1c(Cl)nc2c(ncn2[C@@H]2O[C@H](CS(=O)(=O)CP(=O)(O)O)[C@@H](O)[C@H]2O)c1NC1CC(F)(F)C1 [Compound 113, (((((2S,3S,4R,5R)-5-(5-chloro-6-cyano-7-((3,3-difluorocyclobutyl)amino)-3H-imidazo[4,5-b]pyridin-3-yl)-3,4-dihydroxytetrahydrofuran-2-yl)methyl)sulfonyl)methyl)phosphonic acid] | < 10 nM | < 10 nM |
| N#Cc1c(Cl)nc2c(ccn2[C@@H]2O[C@H](CS(=O)(=O)CP(=O)(O)O)[C@@H](O)[C@H]2O)c1NC1CC(F)(F)C1 [Compound 20] | < 10 nM | < 10 nM |
| N#Cc1c(Cl)nc2c(c(F)cn2[C@@H]2O[C@H](COCP(=O)(O)O)[C@@H](O)[C@H]2O)c1NC1CC(F)(F)C1 [Compound 160] | < 10 nM | < 10 nM |
| N#Cc1nc2c(ccn2[C@@H]2O[C@H](COP(=O)(O)CP(=O)(O)O)[C@@H](O)[C@H]2O)c(NC2CCCC2)c1Cl [Compound 211] | < 10 nM | < 10 nM |
| C[C@@H](Nc1c(C#N)c(Cl)nc2c1cnn2[C@@H]1O[C@H](COP(=O)(O)CP(=O)(O)O)[C@@H](O)[C@H]1O)c1ccccc1F [Compound 248] | < 10 nM | < 10 nM |
| N#Cc1nc2c(ccn2[C@@H]2O[C@H](COCP(=O)(O)O)[C@@H](O)[C@H]2O)c(N2C[C@@H](F)[C@@H](F)C2)c1C#N [Compound 106] | < 10 nM | < 10 nM |
| N#Cc1nc2c(ccn2[C@@H]2O[C@H](CS(=O)(=O)CP(=O)(O)O)[C@@H](O)[C@@H]2F)c(NC2CC(F)(F)C2)c1C#N [Compound 174] | 10 to 100 nM | 10 to 100 nM |
| N#Cc1nc2c(ccn2[C@@H]2O[C@H](COCP(=O)(O)O)[C@@H](O)[C@H]2O)c(N2CCC(F)(F)C2)c1Cl [Compound 102] | < 10 nM | < 10 nM |
| N#Cc1c(Cl)nc2c(ccn2[C@@H]2O[C@H](CS(=O)(=O)CP(=O)(O)O)[C@@H](O)[C@@H]2F)c1NC1CC(F)(F)C1 [Compound 169] | < 10 nM | < 10 nM |
| N#Cc1nc2c(ccn2[C@@H]2O[C@H](CS(=O)(=O)CP(=O)(O)O)[C@@H](O)[C@H]2O)c(N2CCC(F)(F)C2)c1Cl [Compound 143] | < 10 nM | < 10 nM |

| Compound | IC50 (Human CD73) | IC50 [1] |
| --- | --- | --- |
| C[C@H](Nc1c(C#N)c(Cl)nc2c1ncn2[C@@H]1O[C@H](COP(=O)(O)CP(=O)(O)O)[C@@H](O)[C@H]1O)c1ccc(C#N)cc1 [Compound 227] | < 10 nM | < 10 nM |
| N#Cc1c(Cl)nc2c(cnn2[C@@H]2O[C@H](COCP(=O)(O)O)[C@@H](O)[C@H]2O)c1NC1CC2CC2C1 (some centres unmarked) [Compound 70] | < 10 nM | < 10 nM |
| N#Cc1c(Cl)nc2c(cnn2[C@@H]2O[C@H](CS(=O)(=O)CP(=O)(O)O)[C@@H](O)[C@H]2O)c1NC1CC2CC2C1 (some centres unmarked) [Compound 128] | < 10 nM | < 10 nM |
| N#Cc1c(Cl)nc2c(ccn2[C@@H]2O[C@H](COP(=O)(O)CP(=O)(O)O)[C@@H](O)[C@H]2O)c1N1CC2CC2C1 (some centres unmarked) [Compound 29] | < 10 nM | < 10 nM |
| N#Cc1c(Cl)nc2c(cnn2[C@@H]2O[C@H](CS(=O)(=O)CP(=O)(O)O)[C@@H](O)[C@H]2O)c1NC1CC(F)(F)C1 [Compound 129] | < 10 nM | < 10 nM |
| C[C@@H](Nc1c(C#N)c(Cl)nc2c1ncn2[C@@H]1O[C@H](COP(=O)(O)CP(=O)(O)O)[C@@H](O)[C@H]1O)c1ccc(F)cn1 [Compound 225] | < 10 nM | < 10 nM |
| C[C@H](Nc1c(C#N)c(Cl)nc2c1ccn2[C@@H]1O[C@H](COP(=O)(O)CP(=O)(O)O)[C@@H](O)[C@@H]1F)c1ccc(C#N)cc1 [Compound 230] | < 10 nM | < 10 nM |
| N#Cc1c(Cl)nc2c(ccn2[C@@H]2O[C@H](COP(=O)(O)CP(=O)(O)O)[C@@H](O)[C@@H]2F)c1NC1CCCC1 [Compound 216] | < 10 nM | < 10 nM |
| C[C@@H](Nc1c(C#N)c(Cl)nc2c1ccn2[C@@H]1O[C@H](CS(=O)(=O)CP(=O)(O)O)[C@@H](O)[C@H]1O)c1ccc(F)cc1 [Compound 27, (((((2S,3S,4R,5R)-5-(6-chloro-5-cyano-4-(((R)-1-(4-fluorophenyl)ethyl)amino)-1H-pyrrolo[2,3-b]pyridin-1-yl)-3,4-dihydroxytetrahydrofuran-2-yl)methyl)sulfonyl)methyl)phosphonic acid] | < 10 nM | < 10 nM |
| N#Cc1c(Cl)nc2c(ncn2[C@@H]2O[C@H](COCP(=O)(O)O)[C@@H](O)[C@H]2O)c1NC1CC2CC2C1 (some centres unmarked) [Compound 56] | < 10 nM | < 10 nM |
| N#Cc1c(Cl)nc2c(ccn2[C@@H]2O[C@H](COCP(=O)(O)O)[C@@H](O)[C@H]2O)c1NC1CC2(CCC2)C1 [Compound 155] | < 10 nM | < 10 nM |
| N#Cc1c(Cl)nc2c(cnn2[C@@H]2O[C@H](CS(=O)(=O)CP(=O)(O)O)[C@@H](O)[C@H]2O)c1N1CCC(F)(F)C1 [Compound 119, (((((2S,3S,4R,5R)-5-(6-chloro-5-cyano-4-(3,3-difluoropyrrolidin-1-yl)-1H-pyrazolo[3,4-b]pyridin-1-yl)-3,4-dihydroxytetrahydrofuran-2-yl)methyl)sulfonyl)methyl)phosphonic acid] | 10 to 100 nM | < 10 nM |
| N#Cc1c(Cl)nc2c(cnn2[C@@H]2O[C@H](COCP(=O)(O)O)[C@@H](O)[C@H]2O)c1N1CC2CC2C1 (some centres unmarked) [Compound 71] | < 10 nM | < 10 nM |
| N#Cc1c(Cl)nc2c(ccn2[C@@H]2O[C@H](COP(=O)(O)CP(=O)(O)O)[C@@H](O)[C@H]2O)c1N1CCC(F)(F)C1 [Compound 37] | < 10 nM | < 10 nM |
| N#Cc1c(Cl)nc2c(ccn2[C@@H]2O[C@H](COCP(=O)(O)O)[C@@H](O)[C@H]2O)c1NC1CCCC1 [Compound 1, ((((2R,3S,4R,5R)-5-(6-chloro-5-cyano-4-(cyclopentylamino)-1H-pyrrolo[2,3-b]pyridin-1-yl)-3,4-dihydroxytetrahydrofuran-2-yl)methoxy)methyl)phosphonic acid] | < 10 nM | < 10 nM |
